Article PMC7334220, “Diamond Blackfan anemia is mediated by hyperactive Nemo-like kinase” (Nature Communications, 2020)
Like-named read-outs stand apart in the source and are kept apart here.

How the values were obtained:
NLK = molecular target: T1, NLK (Homo sapiens, UniProt Q9UBE8); assay: NLK in vitro kinase assay (NLK, c-Myb, Raptor substrates); assay type: biochemical
T1 construct: NLK, p38, or ALK5 for in vitro kinase assays were immunopurified from Kp53A1 cells; endogenous in cells; immunoprecipitated with anti-NLK (Abcam AB97642)
T1 sequence (Q9UBE8 1-527): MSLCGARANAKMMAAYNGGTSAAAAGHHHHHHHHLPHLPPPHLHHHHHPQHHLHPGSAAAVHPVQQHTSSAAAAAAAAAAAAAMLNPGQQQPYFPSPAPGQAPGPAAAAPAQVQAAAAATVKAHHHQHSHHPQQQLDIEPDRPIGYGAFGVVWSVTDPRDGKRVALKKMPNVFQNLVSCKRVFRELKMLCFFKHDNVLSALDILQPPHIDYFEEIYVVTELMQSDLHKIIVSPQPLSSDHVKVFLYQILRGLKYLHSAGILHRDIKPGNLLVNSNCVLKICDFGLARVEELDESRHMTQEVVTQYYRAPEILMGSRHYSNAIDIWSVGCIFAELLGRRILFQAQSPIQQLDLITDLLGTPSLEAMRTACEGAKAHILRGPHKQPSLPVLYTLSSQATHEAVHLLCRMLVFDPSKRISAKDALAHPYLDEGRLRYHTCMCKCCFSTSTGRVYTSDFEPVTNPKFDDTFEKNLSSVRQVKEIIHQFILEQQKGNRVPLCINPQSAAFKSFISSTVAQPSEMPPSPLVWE
Experimental: Equivalent protein was loaded between samples. b—blue Transduced progenitors were differentiated for 15 days and sorted for surface expression of CD235 + , CD41 + and CD11b + population NLK mRNA was assessed by qRT-PCR. c Control and shRPS19-transduced CB progenitors were differentiated for 10 days prior to separation into CD71^+ and CD71^- populations and assessed for pThr298-NLK phosphorylation by Western blot analysis. d—purple CB CD34 + progenitors were transduced with shRNA against luciferase (shLuc) or RPS19 (shRPS19) along with CFP-NLK and YFP-NLK and differentiated for 10 days. NLK dimerization was quantified by FRET. e—left panel NLK was immunoprecipitated from transduced differentiating CD71^+ and CD71^- populations after 10 days, and incubated in the presence of ATP, Mg^2+ and dephosphorylated NLK (i orange), c-Myb (ii—blue) and Raptor (iii—green) for 30 min at 37 °C. Phosphorylation was detected by a combination of anti^-phosphoserine-HRP and anti-phosphothreonine-HRP antibodies, or mouse anti-phosphoserine and anti-mouse-HRP antibodies. e—right panel For comparison, NLK in vitro kinase activity was assessed from CD235^+, CD41^+ and CD11b^+ populations enriched after identical treatments. f A panel of eight small molecule p38 inhibitors were titrated into in vitro kinase assays in the presence of activated NLK or p38 from stimulated Kp53A1 cells. The IC50 for NLK and p38 for each compound was calculated. The data are represented diagrammatically with IC50 values represented as vertical lines along a concentration gradient for NLK and p38. Kinase activity is represented as blue and the extent of inhibition is depicted in white. […] Bars represent means ± SD with individual data points overlaid. n = 3 independent experiments performed in triplicate.Statistics: two-tailed Student’s t test, significant *p < 0.05. Also see Supplementary Figs. 3 and 4. Source data are provided as a Source Data file. […] Inhibitors were added to cells at indicated concentrations with a final DMSO concentration of 0.5%. […] IC50 calculations were obtained using 8–9 concentrations of compound and generated using the IC50 Calculator software by AAT Bioquest®. NLK, p38, or ALK5 for in vitro kinase assays were immunopurified from Kp53A1 cells. NLK activation was induced by incubating cells at 32° for 24-48 h, p38 by stimulating with IL-3, IL-6, SCF, and Epo at the same concentrations used for differentiating erythroid progenitors.
For NLK kinase analysis, cultures were treated as indicated and lysed for 30 min at 4 °C in 750 μl of kinase lysis buffer (50 mM Tris [pH 7.4], 5 mM EDTA, 250 mM NaCl, 0.1% Triton X-100, 50 mM NaF, 0.1 trypsin inhibitor unit of aprotinin per ml, 50 μg of phenylmethylsulfonyl fluoride per ml, 100 μM sodium vanadate, 1 μg of leupeptin per ml). For TGFβR1 kinase analysis, cells were lysed in membrane kinase buffer (10 mM Tris-HCl (pH8.0), 140 mM NaCl, 300 mM KCl, 0.5% Triton X-100, and 0.5% sodium deoxycholate with complete protease inhibitor cocktail (Roche)). Extracts were clarified, and equivalent protein was incubated overnight at 4 °C with antibody (NLK: #AB97642; Abcam, TGFβR1: V22; Santa Cruz Biotechnology). Immune complexes were collected with Catch and Release® V2.0 Reversible Immunoprecipitation System and diluted in kinase buffer (25 mM Tris [pH 7.4], 10 mM MgCl2, 1 mM dithiothreitol). When cell numbers were limiting, NLK activity was amplified by adding 0.5 µg dephosphorylated NLK prior to performing kinase reaction. 50 μl of kinase buffer containing NLK or TGFβR1 sample and 5 μM ATP was incubated in the presence of biotinylated substrate (NLK, c-Myb, or Raptor for NLK and Smad2 or Smad3 for TGFβR1) immobilized on streptavidin-coated 96-well plates.

[1] = test system: RPS19-insufficient cord blood CD34+ HSPCs; assay: In vitro differentiation of cord blood CD34+ HSPCs transduced with shRNA against RPS19 (cell count and flow cytometry); assay type: cell-based, human
Experimental: Cells were plated at 2000 cell per well in 96-well plates in the presence or absence of doxycycline. Relative amounts of live cells were quantified by luciferase-based Cell titer-Glo® assay. b TGFβR1 inhibitors were assessed for their ability to increase cell expansion in RPS19-insuffiency. As a control, vehicle alone (no doxycycline) is represented at the far left while all other samples were treated with doxycycline to induce RPS19-insufficiency. c Kit^+ erythroid progenitors were grown in the absence of doxycycline and in the presence of 10 µM of indicated compound. In addition, cells were treated with 5 ng/ml of TGFβ1 for 5 days before being subjected to Cell titer-Glo® assay. d Differentiating cord blood CD34^+ progenitors were transduced with shRNA against luciferase or RPS19 and treated with inhibitors at working concentrations for TGFβ inhibition every three days. […] Cells were counted and CD235^+ erythroid (i and iii) and CD11b^+ myeloid cell (ii and iv) percentages were determined by flow cytometry. The number of erythroid or myeloid cells is expressed as a percentage of the number of that lineage with no cytokine or drug treatment. Bars represent means ± SD with individual data points overlaid. n = 3 independent experiments performed in triplicate. Statistics: two-tailed Student’s t test, significant *p < 0.05. Also see Supplementary Fig. 1. Erythroid expansion is depicted in red while myeloid is in purple. Source data are provided as a Source Data file.
Cells were counted and assessed for cell surface expression of CD235. b Lin-Kit^+ hematopoietic progenitors were obtained from three mouse embryos expressing tetracycline-inducible shRNA against RPS19 at day E14.5 or three untreated mice, and thee mature RPL11^+/+ or three mature RPL11^+/lox mice treated with tamoxifen for eight weeks. […] Values were expressed as a percentage relative to untreated controls. c, d Intracellular phosphorylation of NLK at Thr298 was determined by capillary electrophoresis using the Peggy Sue™ Automated Western blotting platform. After lysis, 4 µg of protein from the CD235^+ population was probed against pThr298-NLK and normalized to GAPDH. […] After counting the total cell population, the ratio of CD235^+ erythroblasts was determined by flow cytometry and number of CD235^+ erythroblasts calculated. This was expressed as a percentage of the average number of erythroid cells present in untreated healthy controls. f NLK phosphorylation was assessed by capillary electrophoresis as above. Bars represent means ± SD with individual data points overlaid. […] Statistics: two-tailed Student’s t test, significant *p < 0.05. Also see Supplementary Fig. 8. Source data are provided as a Source Data file.
Primary human CD34^+ hematopoietic stem and progenitor cells were purified from cord or peripheral blood (New York Blood Center) or from human fetal liver tissue (Advanced Bioscience Resources and University of California, Los Angeles Center for AIDS Research) by using magnetic-activated cell sorting (Miltenyi Biotec) and were cryopreserved. Upon thawing, cells were cultured in x-Vivo15 media (Lonza) containing 10% fetal bovine serum, fms-related tyrosine kinase 3 (50 ng/ml), […] (50 ng/ml), interleukin-3 (IL-3; 20 ng/ml), interleukin-6 (IL-6; 20 ng/ml), and stem cell factor (50 ng/ml). When applied, TGFβ1 was added at 5 ng/ml. Kp53A1 cells were obtained from Javier Leon and cultured in DMEM supplemented with 10% fetal bovine serum at 37 or 32 °C.

[2] = test system: ribosome-competent cord blood CD34+ HSPCs (shLuc); assay: In vitro differentiation of cord blood CD34+ HSPCs transduced with control shRNA (luciferase); assay type: cell-based, human; conditions: ribosome-competent cells; 5 ng/ml TGFβ1; 5 µM compound; 15 days; Fig. 1e
Experimental: Lin-Kit^+ fetal liver cells were obtained from mouse embryos expressing tet-on shRNA against RPS19, at day E14.5-15.5. Cells were plated at 2000 cell per well in 96-well plates in the presence or absence of doxycycline. Relative amounts of live cells were quantified by luciferase-based Cell titer-Glo® assay. b TGFβR1 inhibitors were assessed for their ability to increase cell expansion in RPS19-insuffiency. As a control, vehicle alone (no doxycycline) is represented at the far left while all other samples were treated with doxycycline to induce RPS19-insufficiency. c Kit^+ erythroid progenitors were grown in the absence of doxycycline and in the presence of 10 µM of indicated compound. In addition, cells were treated with 5 ng/ml of TGFβ1 for 5 days before being subjected to Cell titer-Glo® assay. d Differentiating cord blood CD34^+ progenitors were transduced with shRNA against luciferase or RPS19 and treated with inhibitors at working concentrations for TGFβ inhibition every three days. […] Cells were counted and CD235^+ erythroid (i and iii) and CD11b^+ myeloid cell (ii and iv) percentages were determined by flow cytometry. The number of erythroid or myeloid cells is expressed as a percentage of the number of that lineage with no cytokine or drug treatment. […]
Fig. 8 NLK inhibition increases expansion of erythroid progenitors from human and murine models of DBA. a Human cord blood CD34^+ progenitors were transduced with lentivirus co-expressing GFP with shRNA against luciferase (shLuc), RPS19 (shRPS19), or RPL11 (shRPL11). […] Cells were counted and assessed for cell surface expression of CD235. b Lin-Kit^+ hematopoietic progenitors were obtained from three mouse embryos expressing tetracycline-inducible shRNA against RPS19 at day E14.5 or three untreated mice, and thee mature RPL11^+/+ or three mature RPL11^+/lox mice treated with tamoxifen for eight weeks. […] Values were expressed as a percentage relative to untreated controls. c, d Intracellular phosphorylation of NLK at Thr298 was determined by capillary electrophoresis using the Peggy Sue™ Automated Western blotting platform. […]

p38 = conditions: reported, no reference given; read-out: reported IC50 against p38; cited from earlier work
[3] = Fig. 3f, activated NLK from stimulated Kp53A1 cells, read-out: NLK Observed IC50

## Cn1c(NC[C@@H](N)Cc2ccccc2)nc(-c2ccncc2)c(-c2ccc3ccccc3c2)c1=O [AMG-548]
NLK; [3]
  IC50: 3.6 nM

## CCc1nc(-c2cccc(C)c2)c(-c2ccnc(NC(=O)c3ccccc3)c2)s1 [TAK-715]
NLK; [3]
  IC50: 9300 nM

## Cc1cccc(-c2[nH]c(C(C)(C)C)nc2-c2ccc3nccnc3c2)n1 [SB525334]
[1]; RPS19-insufficient cells, 5 ng/ml TGFβ1, 5 µM, Fig. 1e.iii
  erythropoiesis, % of controls, in TGFβ-treated cells: 128.6%
[1]; RPS19-insufficient cells, 5 µM, Fig. 1e.iii
  effect on erythropoiesis of cells not treated with TGFβ: did not influence
[2]
  restoration of erythroid and myeloid expansion of TGFβ-treated cells: restored

## Cc1cccc(-c2nn3c(c2-c2ccnc4ccc(C(N)=O)cc24)CCC3)n1 [Galunisertib]
[1]; CD235+ erythroid cells after 15 days, inhibitors at working concentrations for TGFβ inhibition every three days, Fig. 1d
  increase of erythropoiesis in RPS19-insufficiency compared with control treated cells: 3.2 fold
NLK; Supplementary Fig. 1e, read-out: IC50 against NLK
  IC50: 1340 nM
NLK; added to activated NLK in vitro, Supplementary Fig. 1c
  inhibition of NLK-mediated phosphorylation of NLK substrates NLK, c-Myb and Raptor: 40–45%
p38
  IC50: 405 nM

## C[S+]([O-])c1ccc(-c2nc(-c3ccncc3)c(-c3ccc(F)cc3)[nH]2)cc1 (centres unmarked) [SB203580]
[1]; 12 days, recommended concentrations, rebuttal Experiment 12
  erythroid expansion (CD235) in RPS19-insufficient HSPCs: significantly increased
[1]; CD235+, 12 days, recommended concentrations, Supplementary Fig. 2b
  improvement of erythropoiesis (comparison of SD208 with p38 inhibitors): improved erythropoiesis
